Results on 21 molecules are retold here after US12503438B2, “Compounds for the treatment of kinase-dependent disorders” (Exelixis, Inc., priority 2019, dated 2025).

Structures are written as SMILES.

For one experiment, the target named is Met (Homo sapiens, UniProt P08581). Put plainly: Met autophosphorylation ELISA in PC-3 cells. The arrangement: endogenous in cells; host or cells: PC-3 prostate cancer cells (ATCC #CRL-1435). The class given is cell-based. The settings on record: cellular activity, HGF-stimulated, phospho-Met ELISA, read-out: c-Met IC50. The method, boiled down: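 PC-3 cells serum-starved 3 h, treated 1 h with 8-point compound series (0.3% DMSO), then stimulated with 100 ng/mL human HGF for 10 min. Lysate phospho-Met (panTyr) measured by sandwich ELISA; IC50 from 4-parameter logistic fit against DMSO and reference-inhibitor controls.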
(In general: An ELISA detects its analyte on a solid surface through an enzyme-linked reagent.)

The target in another experiment is T1, AXL (Homo sapiens, UniProt P30530).
T1 construct: endogenous in cells; host or cells: A-172 glioblastoma cells (ATCC #CRL-1620)
T1 sequence (P30530 26-894): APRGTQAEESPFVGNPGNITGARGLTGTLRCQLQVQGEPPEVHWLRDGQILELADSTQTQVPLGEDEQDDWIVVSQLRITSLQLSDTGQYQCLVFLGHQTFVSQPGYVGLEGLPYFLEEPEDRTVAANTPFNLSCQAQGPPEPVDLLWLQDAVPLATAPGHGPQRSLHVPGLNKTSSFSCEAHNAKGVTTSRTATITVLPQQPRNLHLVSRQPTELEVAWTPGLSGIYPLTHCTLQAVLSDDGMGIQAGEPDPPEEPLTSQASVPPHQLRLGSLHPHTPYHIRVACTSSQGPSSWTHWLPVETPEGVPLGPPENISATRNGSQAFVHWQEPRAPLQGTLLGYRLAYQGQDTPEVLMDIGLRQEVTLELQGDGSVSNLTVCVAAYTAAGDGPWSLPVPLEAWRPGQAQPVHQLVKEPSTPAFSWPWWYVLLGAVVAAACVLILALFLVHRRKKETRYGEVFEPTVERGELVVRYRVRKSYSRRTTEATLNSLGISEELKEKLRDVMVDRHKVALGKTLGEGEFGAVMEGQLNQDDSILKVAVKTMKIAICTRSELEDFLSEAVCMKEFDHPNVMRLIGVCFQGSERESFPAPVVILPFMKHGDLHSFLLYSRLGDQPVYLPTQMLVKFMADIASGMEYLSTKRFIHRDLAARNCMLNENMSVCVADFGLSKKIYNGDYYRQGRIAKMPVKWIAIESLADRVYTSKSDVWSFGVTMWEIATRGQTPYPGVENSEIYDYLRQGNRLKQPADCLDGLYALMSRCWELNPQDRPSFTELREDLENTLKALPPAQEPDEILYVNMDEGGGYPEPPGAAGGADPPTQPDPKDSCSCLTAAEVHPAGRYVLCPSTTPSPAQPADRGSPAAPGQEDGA
The experiment is described as follows: AXL autophosphorylation ELISA in A-172 cells. The note with it: cellular activity, Gas6-stimulated, phospho-AXL ELISA. The experiment is classed as cell-based. The method, boiled down:
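Serum-starved (24 h) A-172 glioblastoma cells got an 8-point compound series (0.3% DMSO) for 1 h, then 1 μg/mL human Gas6 for 15 min. Lysate phospho-AXL quantified by ELISA against phospho-AXL standard, normalized to DMSO and reference-inhibitor controls; IC50 by 4-parameter logistic fit.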

As a reminder, the IC50 is the midpoint of a concentration-inhibition curve.

Sequence of Met (P08581 25-1390): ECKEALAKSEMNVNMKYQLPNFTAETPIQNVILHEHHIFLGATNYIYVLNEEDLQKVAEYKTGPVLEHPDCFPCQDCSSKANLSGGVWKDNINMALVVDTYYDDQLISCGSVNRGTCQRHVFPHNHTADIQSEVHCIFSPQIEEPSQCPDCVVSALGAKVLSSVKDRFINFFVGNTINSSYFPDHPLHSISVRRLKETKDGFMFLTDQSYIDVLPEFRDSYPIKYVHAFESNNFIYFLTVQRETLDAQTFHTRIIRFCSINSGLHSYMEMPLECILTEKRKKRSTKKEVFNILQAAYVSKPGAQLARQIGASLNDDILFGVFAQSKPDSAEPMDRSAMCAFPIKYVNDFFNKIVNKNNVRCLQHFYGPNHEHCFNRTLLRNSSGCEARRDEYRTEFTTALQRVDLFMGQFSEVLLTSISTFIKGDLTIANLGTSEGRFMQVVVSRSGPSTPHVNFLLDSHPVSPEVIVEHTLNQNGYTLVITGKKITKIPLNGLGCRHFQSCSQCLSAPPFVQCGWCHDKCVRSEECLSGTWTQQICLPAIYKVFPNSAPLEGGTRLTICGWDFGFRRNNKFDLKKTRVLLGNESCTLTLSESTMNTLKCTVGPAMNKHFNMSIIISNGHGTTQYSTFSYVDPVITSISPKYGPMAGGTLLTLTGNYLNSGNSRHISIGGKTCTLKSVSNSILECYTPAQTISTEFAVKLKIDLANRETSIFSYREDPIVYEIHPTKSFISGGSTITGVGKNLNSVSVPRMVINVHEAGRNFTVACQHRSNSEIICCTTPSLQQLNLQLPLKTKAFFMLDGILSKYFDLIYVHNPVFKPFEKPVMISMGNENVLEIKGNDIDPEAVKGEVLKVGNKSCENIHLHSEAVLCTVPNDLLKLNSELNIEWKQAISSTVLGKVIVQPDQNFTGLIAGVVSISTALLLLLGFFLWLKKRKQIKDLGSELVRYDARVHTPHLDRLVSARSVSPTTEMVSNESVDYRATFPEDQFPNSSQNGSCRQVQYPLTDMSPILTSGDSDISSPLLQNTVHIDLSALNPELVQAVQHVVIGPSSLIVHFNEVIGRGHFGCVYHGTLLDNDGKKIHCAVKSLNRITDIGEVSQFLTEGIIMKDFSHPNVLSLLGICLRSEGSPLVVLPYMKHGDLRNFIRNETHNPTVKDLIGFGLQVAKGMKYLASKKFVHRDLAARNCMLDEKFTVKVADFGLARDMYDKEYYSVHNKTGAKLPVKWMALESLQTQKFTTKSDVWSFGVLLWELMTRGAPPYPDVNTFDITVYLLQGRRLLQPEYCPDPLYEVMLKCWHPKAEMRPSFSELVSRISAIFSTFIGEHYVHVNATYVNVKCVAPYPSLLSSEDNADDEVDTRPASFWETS

On to `N#Cc1ccc(-c2ccc3c(Oc4ccc(NC(=O)C5(C(=O)Nc6ccc(F)cc6)CC5)cc4)ccnc3c2)cn1` [Compound 42, 1-N-[4-[7-(6-Cyanopyridin-3-yl)quinolin-4-yl]oxyphenyl]-1-N′-(4-fluorophenyl)cyclopropane-1,1-dicarboxamide], for which the IC50 at Met and at AXL was 10 to 100 nM throughout.
`O=C(Nc1ccc(F)cc1)C1(C(=O)Nc2ccc(Oc3ccnc4cc(-c5ccccn5)ccc34)cc2)CC1` [Compound 85, 1-N′-(4-Fluorophenyl)-1-N-[4-(7-pyridin-2-ylquinolin-4-yl)oxyphenyl]cyclopropane-1,1-dicarboxamide]: the IC50 on Met and at AXL was 10 to 100 nM throughout.
Turning to `CC(=O)N1CCC(n2cc(-c3ccc4c(Oc5ccc(NC(=O)C6(C(=O)Nc7ccc(F)cc7)CC6)cc5)ccnc4c3)cn2)CC1` [Compound 62, 1-N-[4-[7-[1-(1-Acetylpiperidin-4-yl)pyrazol-4-yl]quinolin-4-yl]oxyphenyl]-1-N′-(4-fluorophenyl)cyclopropane-1,1-dicarboxamide], the IC50 was 10 to 100 nM at Met and at most 10 nM on AXL.
For `Cn1cc(-c2ccc3c(Oc4ccc(NC(=O)C5(C(=O)Nc6ccc(F)cc6)CC5)cc4)ccnc3c2)cn1` [Compound 11, 1-N′-(4-Fluorophenyl)-1-N-[4-[7-(1-methylpyrazol-4-yl)quinolin-4-yl]oxyphenyl]cyclopropane-1,1-dicarboxamide], the IC50 on Met and against AXL was at most 10 nM in each case.
On to `O=C(Nc1ccc(F)cc1)C1(C(=O)Nc2ccc(Oc3ccnc4cc(-c5ccc[n+]([O-])c5)ccc34)cc2)CC1` [Compound 109, 1-N′-(4-Fluorophenyl)-1-N-[4-[7-(1-oxidopyridin-1-ium-3-yl)quinolin-4-yl]oxyphenyl]cyclopropane-1,1-dicarboxamide], for which the IC50 at Met was 10 to 100 nM; against AXL, at most 10 nM.
`N#Cc1cncc(-c2ccc3c(Oc4ccc(NC(=O)C5(C(=O)Nc6ccc(F)cc6)CC5)cc4)ccnc3c2)c1` [Compound 40, 1-N-[4-[7-(5-Cyanopyridin-3-yl)quinolin-4-yl]oxyphenyl]-1-N′-(4-fluorophenyl)cyclopropane-1,1-dicarboxamide]: the IC50 on Met and at AXL was 10 to 100 nM throughout.
As for `O=C(Nc1ccc(F)cc1)C1(C(=O)Nc2ccc(Oc3ccnc4cc(-c5cc6n(n5)CCC6)ccc34)cc2)CC1` [Compound 124, 1-N-[4-[7-(5,6-Dihydro-4H-pyrrolo[1,2-b]pyrazol-2-yl)quinolin-4-yl]oxyphenyl]-1-N′-(4-fluorophenyl)cyclopropane-1,1-dicarboxamide], the IC50 on Met and at AXL was 10 to 100 nM throughout.
On to `Cc1cncc(-c2ccc3c(Oc4ccc(NC(=O)C5(C(=O)Nc6ccc(F)cc6)CC5)cc4)ccnc3c2)c1` [Compound 46, 1-N′-(4-Fluorophenyl)-1-N-[4-[7-(5-methylpyridin-3-yl)quinolin-4-yl]oxyphenyl]cyclopropane-1,1-dicarboxamide], for which the IC50 at Met was 100 to 300 nM; at AXL it was over 300 nM.
`CNC(=O)c1cc2c(Oc3ccc(NC(=O)C4(C(=O)Nc5ccc(F)cc5)CC4)cc3)ccnc2cc1-c1cnn(C)c1` [Compound 77, 1-N′-(4-Fluorophenyl)-1-N-[4-[6-(methylcarbamoyl)-7-(1-methylpyrazol-4-yl)quinolin-4-yl]oxyphenyl]cyclopropane-1,1-dicarboxamide]: the IC50 at Met and against AXL was 10 to 100 nM in each case.
On to `O=C(Nc1ccc(F)cc1)C1(C(=O)Nc2cc(F)c(Oc3ccnc4cc(-c5cccnc5)ccc34)cc2F)CC1` [Compound 115, 1-N′-[2,5-Difluoro-4-(7-pyridin-3-ylquinolin-4-yl)oxyphenyl]-1-N-(4-fluorophenyl)cyclopropane-1,1-dicarboxamide], for which the IC50 on Met is 10 to 100 nM; against AXL, at most 10 nM.
In the case of `O=C(Nc1ccc(F)cc1)C1(C(=O)Nc2cc(F)c(Oc3ccnc4cc(-c5cnn(C(F)F)c5)ccc34)cc2F)CC1` [Compound 118, 1-N′-[4-[7-[1-(Difluoromethyl)pyrazol-4-yl]quinolin-4-yl]oxy-2,5-difluorophenyl]-1-N-(4-fluorophenyl)cyclopropane-1,1-dicarboxamide], the IC50 at Met was 10 to 100 nM; against AXL, at most 10 nM.
As for `O=C(Nc1ccc(F)cc1)C1(C(=O)Nc2ccc(Oc3ccnc4cc(-c5ccncn5)ccc34)cc2)CC1` [Compound 114, 1-N′-(4-Fluorophenyl)-1-N-[4-(7-pyrimidin-4-ylquinolin-4-yl)oxyphenyl]cyclopropane-1,1-dicarboxamide], the IC50 at Met and on AXL was 10 to 100 nM throughout.
As to `Cn1cc(-c2ccc3c(Oc4ccc(NC(=O)C5(C(=O)N6CCc7cc(F)ccc76)CC5)cc4)ccnc3c2)cn1` [Compound 81, 1-(5-Fluoro-2,3-dihydroindole-1-carbonyl)-N-[4-[7-(1-methylpyrazol-4-yl)quinolin-4-yl]oxyphenyl]cyclopropane-1-carboxamide], the IC50 on Met and against AXL was 10 to 100 nM in each case.
Turning to `Cc1cc2c(Oc3c(F)cc(NC(=O)C4(C(=O)Nc5ccc(F)cc5)CC4)c(F)c3F)ccnc2cc1-c1cnn(C)c1` [Compound 110, 1-N-(4-Fluorophenyl)-1-N′-[2,3,5-trifluoro-4-[6-methyl-7-(1-methylpyrazol-4-yl)quinolin-4-yl]oxyphenyl]cyclopropane-1,1-dicarboxamide], the 50% inhibitory concentration (IC50) on Met and on AXL was 10 to 100 nM each time.
`CCn1cc(-c2ccc3c(Oc4ccc(NC(=O)C5(C(=O)Nc6ccc(F)cc6)CC5)cc4)ccnc3c2)cn1` [Compound 20, 1-N-[4-[7-(1-Ethylpyrazol-4-yl)quinolin-4-yl]oxyphenyl]-1-N′-(4-fluorophenyl)cyclopropane-1,1-dicarboxamide]: the IC50 at Met was 10 to 100 nM; at AXL, at most 10 nM.
In the case of `Cc1cc(F)cc(C)c1NC(=O)C1(C(=O)Nc2ccc(Oc3ccnc4cc(-c5cnn(C)c5)ccc34)cc2)CC1` [Compound 82, 1-N′-(4-Fluoro-2,6-dimethylphenyl)-1-N-[4-[7-(1-methylpyrazol-4-yl)quinolin-4-yl]oxyphenyl]cyclopropane-1,1-dicarboxamide], the IC50 fell in the range of 100 to 300 nM on Met and 10 to 100 nM against AXL.
For `Cc1cc2c(Oc3ccc(NC(=O)C4(C(=O)Nc5ccc(F)cc5)CC4)cc3)ccnc2cc1-c1ncc[nH]1` [Compound 120, 1-N′-(4-Fluorophenyl)-1-N-[4-[7-(1H-imidazol-2-yl)-6-methylquinolin-4-yl]oxyphenyl]cyclopropane-1,1-dicarboxamide] the same measures were 10 to 100 nM and 10 to 100 nM.
Turning to `O=C(Nc1ccc(F)cc1)C1(C(=O)Nc2ccc(Oc3ccnc4cc(-c5cnn(C6CCNCC6)c5)ccc34)cc2)CC1` [Compound 60, 1-N′-(4-Fluorophenyl)-1-N-[4-[7-(1-piperidin-4-ylpyrazol-4-yl)quinolin-4-yl]oxyphenyl]cyclopropane-1,1-dicarboxamide], the IC50 was 10 to 100 nM on Met and at most 10 nM on AXL.
For `CN1CCC(n2cc(-c3ccc4c(Oc5ccc(NC(=O)C6(C(=O)Nc7ccc(F)cc7)CC6)cc5)ccnc4c3)cn2)CC1` [Compound 61, 1-N′-(4-Fluorophenyl)-1-N-[4-[7-[1-(1-methylpiperidin-4-yl)pyrazol-4-yl]quinolin-4-yl]oxyphenyl]cyclopropane-1,1-dicarboxamide], the IC50 at Met was 10 to 100 nM; at AXL, at most 10 nM.
For the molecule `O=C(Nc1ccc(F)cc1)C1(C(=O)Nc2ccc(Oc3ccnc4cc(-c5cnn(C6CC6)c5)ccc34)cc2)CC1` [Compound 22, 1-N-[4-[7-(1-Cyclopropylpyrazol-4-yl)quinolin-4-yl]oxyphenyl]-1-N′-(4-fluorophenyl)cyclopropane-1,1-dicarboxamide], the IC50 on Met and at AXL was 10 to 100 nM throughout.
On to `O=C(Nc1ccc(F)cc1)C1(C(=O)Nc2ccc(Oc3ccnc4cc(-c5cnn(C(F)F)c5)ccc34)cc2)CC1` [Compound 13, 1-N-[4-[7-[1-(Difluoromethyl)pyrazol-4-yl]quinolin-4-yl]oxyphenyl]-1-N′-(4-fluorophenyl)cyclopropane-1,1-dicarboxamide], for which the results for the IC50 at Met and at AXL were 10 to 100 nM and at most 10 nM, respectively.
